# Assays:
# Bovine brain calmodulin = Bovine brain calmodulin (Bos taurus, UniProt P62157); assay: Calmodulin assayed by activation of calmodulin-dependent cyclic nucleotide phosphodiesterase; type: biochemical; conditions: 122 μM
# Text: Bovine brain calmodulin was purified to homogeneity according to the method described by Sharma and Wang (1979), cited above, with the inclusion of phenyl-Sepharose affinity chromatography as described by Dedman and Kaetzel (1983) Methods Enzymol., 102:1-8. Calmodulin-deficient, calmodulin-dependent cyclic nucleotide phosphodiesterase from bovine brain was partially purified by the method described by Sharma et al. (1983) Methods Enzymol., 102:210-219, with the omission of the calmodulin-Sepharose affinity chromatography. Calmodulin was assayed by the activation of the bovine brain calmodulin-dependent cyclic, nucleotide phosphodiesterase as described by Leung et al. (1982) J. Biol. Chem., 259:2742-2747. Briefly, the phosphodiesterase reaction was coupled to the 5,'-nucleotidase reaction. The amount of phosphate released was measured by the malachite green method of Carter and Karl (1982) J. Biochem. Biophys. Methods, 7:7-13. One unit of calmodulin is defined as that amount giving 50% of the maximal activation of the phosphodiesterase.
# [1] = tested on: rabbits fed an atherogenic diet; conditions: cited from earlier work
# [2] = tested on: New Zealand white rabbits; assay: Rabbit feeding experiments: aortas stained with Sudan IV for atherosclerotic lesions; type: in vivo
# Method: (§1) For the first feeding experiment, eighteen young adult New Zealand white rabbits (2.7+/-0,3 kg) were divided into […]. The first group (3 animals) was killed immediately and tissue samples obtained for comparison with the experimental animals. The controls (3 rabbits) were fed 160 g/day Purina Pelleted Rabbit Chow (Ralston Purina Co., St. Louis, MO.); the other three groups (4 rabbits each) received the same diet to which was added 1.6 g recrystallized cholesterol, or 50 mg of the cholesterol hydroperoxide-enriched material, or both 1.6 g recrystallized cholesterol and 50 mg of cholesterol hydroperoxides. The sterols were added to the pelleted diet in ethyl ether and the ether was allowed to evaporate under a stream of nitrogen. The animals were fed this diet for 61 days, during which time one animal on the cholesterol diet died of unknown causes. The weight gained by the animals during the experiment, as percent of initial weight, was: controls, 38%; cholesterol, 33%; hydroperoxides, 34%; and cholesterol plus hydroperoxides, 18%. At the end of the feeding period the animals were killed and blood and tissue samples obtained for further investigation.
# A second feeding experiment was conducted in the same way as the first with the following changes. Twenty-six rabbits (2.8 +/-0.05 kg) were obtained; two were killed before the feeding experiment began and tissue samples obtained as before. The remaining animals were divided into 6 groups of 4. Four groups received the same diets as in the first experiment. The other two groups received 160/g day Purina Pelleted Rabbit Chow to which was added 50 mg/day of the material produced by reduction of the hydroperoxide-enriched material with NaI; or 1.6 g/day recrystallized cholesterol plus 50 mg/day of the reduced material. […]
# The aortas were sectioned longitudinally and stained with Sudan IV (Holman et al., 1958Lat. Invest., 7:42-47). […] J. Biochem. and Physiol., 37:911-917 and free and esterified cholesterol concentrations in plasma, lipoproteins, and tissue were determined by the method of Sale (1984) Anal. Biochem., 142:347-350.
# [3] = Rabbit feeding experiments: blood plasma cholesterol and cholesterol esters; type: in vivo; conditions: +/- S.D.
# Method: as §1
# A second feeding experiment was conducted in the same way as the first with the following changes. Twenty-six rabbits (2.8 +/-0.05 kg) were obtained; two were killed before the feeding experiment began and tissue samples obtained as before. The remaining animals were divided into 6 groups of 4. Four groups received the same diets as in the first experiment. The other two groups received 160/g day Purina Pelleted Rabbit Chow to which was added 50 mg/day of the material produced by reduction of the hydroperoxide-enriched material with NaI; or 1.6 g/day recrystallized cholesterol plus 50 mg/day of the reduced material. The animals received all six diets for 56 days, during which time one control animal and one receiving the hydroperoxide preparation died during removal of blood samples. The weight gain, as percent of initial weight, was: controls, 45%; cholesterol, 31%; hydroperoxides, 29%; cholesterol plus hydroperoxides, 31%; reduced hydroperoxides 35%, and cholesterol plus reduced hydroperoxides, 30%.
# (§2) The aortas were sectioned longitudinally and stained with Sudan IV (Holman et al., 1958Lat. Invest., 7:42-47). Serum lipoproteins were separated as described by Havel et al. (1955) J. Clin. Invest., 34:1345-1353. Lipids were extracted by the method of Bligh and Dyer (1959) Can. J. Biochem. and Physiol., 37:911-917 and free and esterified cholesterol concentrations in plasma, lipoproteins, and tissue were determined by the method of Sale (1984) Anal. Biochem., 142:347-350.
# [4] = Rabbit feeding experiment: cholesterol and cholesterol esters in liver and heart; type: in vivo; conditions: first feeding experiment, +/- S.D.
# Method: as §1, §2
smiles,measurement,setting,value
CC(C)CCC[C@@H](C)[C@H]1CC[C@H]2[C@@H]3CCC4=CC(=O)CC[C@]4(C)[C@H]3CC[C@]12C [4-cholesten-3-one],effect in the phosphodiesterase assay,Bovine brain calmodulin,without effect
CC(C)CCC[C@@H](C)[C@H]1CC[C@H]2[C@@H]3C(=O)C=C4C[C@@H](O)CC[C@]4(C)[C@H]3CC[C@]12C [5-cholesten-3β-ol-7-one],effect in the phosphodiesterase assay,Bovine brain calmodulin,without effect
"CC(C)CCC[C@@H](C)[C@H]1CC[C@H]2[C@@H]3C[C@@H]4O[C@@]45C[C@@H](O)CC[C@]5(C)[C@H]3CC[C@]12C [Cholesterol-5α,6α-epoxide, cholesterol-5α,6α-epoxide]",effect in the phosphodiesterase assay,Bovine brain calmodulin,without effect
CN(C)CCCN1c2ccccc2Sc2ccc(Cl)cc21 [chlorpromazine],development of atherosclerotic lesions,[1],reduced the development of such lesions
same,effect on blood cholesterol,[1],without lowering of blood cholesterol
CC(C)CCC[C@@H](C)[C@H]1CC[C@H]2[C@@H]3CC=C4C[C@@H](O)CC[C@]4(C)[C@H]3CC[C@]12C [cholesterol],atherosclerotic lesions in aorta (Sudan IV),"[2]; first feeding experiment, 61 days, added to chow: 1.6 g/day cholesterol and/or 50 mg/day hydroperoxide material",heavily infiltrated with fatty material
same,atherosclerotic lesions in aorta (Sudan IV),"[2]; first feeding experiment, 61 days, added to chow: 1.6 g/day cholesterol and/or 50 mg/day hydroperoxide material, listed as Cholesterol",extensive atheroma formation
same,atherosclerotic lesions in aorta (Sudan IV),"[2]; second feeding experiment, 56 days, added to chow: 1.6 g/day cholesterol and/or 50 mg/day test material",less than in the first experiment
same,Final blood plasma Cholesterol,[3]; first feeding experiment,446 ± 163 mg/dL
same,Final blood plasma Cholesterol Esters,[3]; first feeding experiment,1507 ± 361 mg/dL
same,Final blood plasma Cholesterol,[3]; second feeding experiment,828 ± 459 mg/dL
same,Final blood plasma Cholesterol Esters,[3]; second feeding experiment,1520 ± 820 mg/dL
same,"cholesterol and esters, HEART",[4],158 +/- 74 mg/100 g wet tissue
same,"cholesterol and esters, LIVER",[4],4960 +/- 1416 mg/100 g wet tissue
same,"cholesterol, HEART",[4],160 +/- 24 mg/100 g wet tissue
same,"cholesterol, LIVER",[4],1217 +/- 615 mg/100 g wet tissue

# Source: US4789670A, “Method and compositions for suppression of atherogenesis utilizing cholesterol hydroperoxides” (priority 1987, dated 1988)
